# Read-outs that look alike come from different tables or passages of the source.
# Test system: modified Shay rat
# Assay: Antiulcerogenic and secretion-inhibiting action on the modified Shay rat (pylorus ligature plus oral acetylsalicylic acid)
# Format: in vivo
# Conditions: for Inhibition of acid secretion: Reduction in HCl secretion / Protective action on stomach: Reduction in lesion index: 4 hours; for ED50: Rattus norvegicus, 4 h, i.d.
# Protocol: Ulcers are provoked in rats which have fasted for 24 hours (female, 180-200 g, 4 animals per cage on high grid) by pylorus ligature (under diethyl ether anaesthesia) and oral administration of 100 mg/10 ml/kg acetylsalicylic acid. The substances to be tested are administered intraduodenally (2,5 ml/kg) immediately following t[e pylorus ligature. The wound is closed by means of Michel clamps. 4 hours later, the animals are sacrificed under ether anaesthesia by atlas dislocation and the stomach is resected. The stomach is opened along the greater curvature and clamped on a cork sheet after first determining the amount of secreted gastric juice (volume) and subsequently its HCl content (titration with sodium hydroxide solution). Using a stereomicroscope at 10×magnification, the number and size (=diameter) of ulcers present are determined. The product of severity (according to the scale of points below) and number of ulcers serves as an individual lesion index. |Scale of points: | No ulcers 0 | Ulcer diameter | 0.1-1.4 mm | 1 | 1.5-2.4 mm | 2 | 2.5-3.4 mm | 3 | 3.5-4.4 mm | 4 | 4.5-5.4 mm | 5 | >5.5 mm 6 The reduction in the mean lesion index of each treated group compared with the control group (=100%) serves as a measure of the antiulcerogenic effect. The ED50 designates the dose which reduces the mean lesion index or the HCl secretion by 50% compared with the control.
# [1] = 0.3 μmol/kg i.d. (intraduodenal)
# [2] = 0.6 μmol/kg i.d. (intraduodenal)
# [3] = 1.0 μmol/kg i.d. (intraduodenal)
# [4] = 1.5 μmol/kg i.d. (intraduodenal)
# [5] = 2.0 μmol/kg i.d. (intraduodenal)
# [6] = 3.0 μmol/kg i.d. (intraduodenal)
# [7] = 6.0 μmol/kg i.d. (intraduodenal)
# [8] = 30.0 μmol/kg i.d. (intraduodenal)
# [9] = dose (interpolated) which reduces the HCl secretion by 50% compared with control group, read-out: Inhibition of acid secretion: Approx. ED50
# [10] = dose (interpolated) which reduces the lesion index by 50% compared with control group, read-out: Protective action on stomach: Approx. ED50
# [11] = 0.1 μmol/kg i.d. (intraduodenal)
# [12] = 10.0 μmol/kg i.d. (intraduodenal)
structure (smiles),measurement,setting,value
"Cc1nc2c(O[C@@H]3c4ccccc4C[C@H]3O)cccn2c1CC#N (relative stereo) [Example 4, 3-cyanomethyl-8-(2-(trans)-hydroxy-2,3-dihydro-1-indenyloxy)-2-methyl-imidazo[1,2-a]pyridine]",Inhibition of acid secretion: Reduction in HCl secretion,[1],-26%
same,Protective action on stomach: Reduction in lesion index,[1],18%
same,Inhibition of acid secretion: Reduction in HCl secretion,[2],12%
same,Protective action on stomach: Reduction in lesion index,[2],33%
same,Inhibition of acid secretion: Reduction in HCl secretion,[3],22%
same,Protective action on stomach: Reduction in lesion index,[3],35%
same,Inhibition of acid secretion: Reduction in HCl secretion,[4],50%
same,Protective action on stomach: Reduction in lesion index,[4],94%
same,Inhibition of acid secretion: Reduction in HCl secretion,[5],51%
same,Protective action on stomach: Reduction in lesion index,[5],98%
same,Inhibition of acid secretion: Reduction in HCl secretion,[6],63%
same,Protective action on stomach: Reduction in lesion index,[6],93%
same,Inhibition of acid secretion: Reduction in HCl secretion,[7],73%
same,Protective action on stomach: Reduction in lesion index,[7],100%
same,Inhibition of acid secretion: Reduction in HCl secretion,[8],99%
same,Protective action on stomach: Reduction in lesion index,[8],100%
same,ED50,[9],~1.95 µmol/kg
same,ED50,[10],~1.04 µmol/kg
"Cc1nc2c(O[C@@H]3c4ccccc4C[C@H]3O)cccn2c1CO (relative stereo) [Example 8, 3-hydroxymethyl-8-(2-(trans)-hydroxy-2,3-dihydro-1-indenyloxy)-2-methyl-imidazo[1,2-a]pyridine]",Inhibition of acid secretion: Reduction in HCl secretion,[11],10%
same,Protective action on stomach: Reduction in lesion index,[11],13%
same,Inhibition of acid secretion: Reduction in HCl secretion,[1],19%
same,Protective action on stomach: Reduction in lesion index,[1],43%
same,Inhibition of acid secretion: Reduction in HCl secretion,[3],25%
same,Protective action on stomach: Reduction in lesion index,[3],47%
same,Inhibition of acid secretion: Reduction in HCl secretion,[6],20%
same,Protective action on stomach: Reduction in lesion index,[6],74%
same,Inhibition of acid secretion: Reduction in HCl secretion,[12],35%
same,Protective action on stomach: Reduction in lesion index,[12],94%
same,Inhibition of acid secretion: Reduction in HCl secretion,[8],98%
same,Protective action on stomach: Reduction in lesion index,[8],100%
same,ED50,[9],~12.9 µmol/kg
same,ED50,[10],~0.69 µmol/kg
Cc1nc2c(O[C@@H]3c4ccccc4C[C@H]3O)cccn2c1C (relative stereo) [Example 2],Inhibition of acid secretion: Reduction in HCl secretion,[1],-20%
same,Protective action on stomach: Reduction in lesion index,[1],25%
same,Inhibition of acid secretion: Reduction in HCl secretion,[3],23%
same,Protective action on stomach: Reduction in lesion index,[3],47%
same,Inhibition of acid secretion: Reduction in HCl secretion,[6],52%
same,Protective action on stomach: Reduction in lesion index,[6],81%
same,Inhibition of acid secretion: Reduction in HCl secretion,[12],47%
same,Protective action on stomach: Reduction in lesion index,[12],94%
same,Inhibition of acid secretion: Reduction in HCl secretion,[8],95%
same,Protective action on stomach: Reduction in lesion index,[8],100%
same,ED50,[9],~4.27 µmol/kg
same,ED50,[10],~0.84 µmol/kg
"Cc1nc2c(O[C@@H]3c4ccc(F)cc4C[C@H]3O)cccn2c1CO (relative stereo) [Example 30, 8-(5-fluoro-2-(trans)-hydroxy-2,3-dihydro-1-indenyloxy)-3-hydroxymethyl-2-methyl-imidazo[1,2-a]pyridine]",Inhibition of acid secretion: Reduction in HCl secretion,[6],41%
same,Protective action on stomach: Reduction in lesion index,[6],86%
"Cc1nc2c(O[C@@H]3c4ccccc4C[C@H]3O)cccn2c1N.Cl (relative stereo) [Example 11, 3-amino-8-(2-(trans)-hydroxy-2,3-dihydro-1-indenyloxy)-2-methyl-imidazo[1,2-a]pyridine-hydrochloride]",Inhibition of acid secretion: Reduction in HCl secretion,[3],16%
same,Protective action on stomach: Reduction in lesion index,[3],27%
same,Inhibition of acid secretion: Reduction in HCl secretion,[6],32%
same,Protective action on stomach: Reduction in lesion index,[6],71%
same,Inhibition of acid secretion: Reduction in HCl secretion,[12],67%
same,Protective action on stomach: Reduction in lesion index,[12],100%
same,ED50,[9],~6.02 µmol/kg
same,ED50,[10],~1.69 µmol/kg

# Source: patent publication US5112834A, “Imidazole protectorant for the stomach and intestine” (BYK Gulden Lomberg Chemische Fabrik GmbH, priority 1987, dated 1992)
